In US10206907B2, “Compounds useful for the treatment of degenerative and inflammatory diseases” (GALAPAGOS NV, priority 2008, dated 2019):
Where two headings read alike, the source gives them in different places.

Tests used:
[1] = target: Recombinant human JAK1 catalytic domain (Homo sapiens (Human), UniProt P23458); test: JAK1 inhibition assay; type: biochemical
Method in brief: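 IC50 values come from dose-response series, with each point expressed as percent inhibition of cpm. Vehicle sets full activity and 10 μM staurosporine sets background. Incorporated radioactivity counted by scintillation after washing with 75 mM phosphoric acid.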

[2] = target: Recombinant human JAK2 catalytic domain (Homo sapiens (Human), UniProt O60674); test: JAK2 inhibition assay; type: biochemical; settings: semi-quantitative score
Method in brief: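 Activity was taken as vehicle cpm minus cpm with 10 μM staurosporine, and inhibition was expressed on that scale. Incubation was 90 min at 30 °C, followed by acid quench, phosphoric acid washes and Microscint counting. Compounds were tested as dose series to obtain IC50.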

[3] = target: Recombinant human JAK3 catalytic domain (Homo sapiens (Human), UniProt P52333); test: JAK3 inhibition assay; type: biochemical; settings: semi-quantitative score
[4] = target: Recombinant human TYK2 catalytic domain (Homo sapiens (Human), UniProt P29597); test: TYK2 inhibition assay; type: biochemical; settings: semi-quantitative score
Protocol: After 90 min at 30° C., reactions were stopped by adding of 25 μL/well of 150 mM phosphoric acid. […] Plates were washed 6 times with 300 μL per well of a 75 mM phosphoric acid solution and the bottom of the plates was sealed. 40 μL/well of Microscint-20 was added, the top of the plates was sealed and readout was performed using the Topcount (Perkin Elmer). Kinase activity was calculated by subtracting counts per minute (cpm) obtained in the presence of a positive control inhibitor (10 μM staurosporine) from cpm obtained in the presence of vehicle. The ability of a test compound to inhibit this activity was determined as: Percentage inhibition=((cpm determined for sample with test compound present−cpm determined for sample with positive control inhibitor) divided by (cpm determined in the presence of vehicle−cpm determined for sample with positive control inhibitor))*100%.
Dose dilution series were prepared for the compounds enabling the testing of dose-response effects in the TYK2 assay and the calculation of the IC50 for each compound.

[5] = tested on: JAK-STAT signalling in HeLa cells; test: JAK-STAT signalling assay (OSM-triggered pSTAT1(2)-luciferase reporter in HeLa cells); type: cell-based; settings: Homo sapiens; HeLa cells, OSM-triggered pSTAT1(2)-luciferase reporter; read-out: STAT signalling EC50
Method in brief: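 Read-out is oncostatin M–driven pSTAT1(2)-luciferase activity, corrected by co-transfected LacZ β-galactosidase, in transiently transfected HeLa cells cultured overnight at 37 °C, 10% CO2. Inhibition percentages against positive and negative controls were plotted across doses to derive EC50.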

MMP13 in SW1353 cells = test: OSM/IL-1β signaling assay (MMP13 levels in SW1353 cells); type: cell-based; settings: Homo sapiens; SW1353 cells, OSM and IL-1β triggered, MMP13 levels 48 hours after triggering; read-out: MMP13 EC50;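 also: secreted MMP13 captured by antibody, activated with APMA and its activity read by fluorescence, inhibition scaled between vehicle-treated triggered wells (0%) and untriggered wells (100%)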
Protocol: The cells were seeded in 96 well plates at 15,000 cells/well in a volume of 120 μL DMEM (Invitrogen) containing 10% (v/v) FBS and 1% penicillin/streptomycin (InVitrogen) incubated at 37° C. […] MMP13 activity was measured using an antibody capture activity assay. […] Next the wells were washed twice with PBS+0.05% Tween followed by MMP13 activation by addition of 35 μL of a 1.5 mM 4-Aminophenylmercuric acetate (APMA) (Sigma, A9563) solution and incubation at 37° C. for 1 hour. […] Percentage inhibition=((fluorescence determined in the presence of vehicle−fluorescence determined for sample with test compound present) divided by (fluorescence determined in the presence of vehicle−fluorescence determined for sample without trigger))*100%.

[6] = Microsomal stability, human liver microsomes; type: in vitro ADME; settings: percentage of compound remaining after 60 minutes, 3 μM compound
Method in brief: (§1)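 Percent parent remaining after 60 min was determined by LCMS against a time-zero sample quenched before microsome addition. Incubations ran at 37°C with liver microsomes and a G6PDH-based NADPH-regenerating cofactor mix. Quench was MeOH or ACN (1:1).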

[7] = Microsomal stability, rat liver microsomes; type: in vitro ADME; settings: percentage of compound remaining after 60 minutes, 3 μM compound
Method in brief: as §1

[8] = Caco2 permeability (bi-directional); type: in vitro ADME, human; settings: human, pH 7.4; for Papp A→B at 1 h, 10 µM: Caco-2, apical to basolateral, read-out: Papp (A2B); for efflux ratio at 1 h, 10 µM: Caco-2, ratio of PappB>A/PappA>B
Method in brief: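 Compound concentrations in both chambers were measured by LC-MS/MS after 1 h incubation at 37 °C on an orbital shaker. Efflux ratio is PappB>A over PappA>B. Lucifer Yellow (50 μM in donor) confirmed layer integrity, with permeability of ≤100 nm/s required.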

Chain of Recombinant human JAK1 catalytic domain (P23458 850-1154): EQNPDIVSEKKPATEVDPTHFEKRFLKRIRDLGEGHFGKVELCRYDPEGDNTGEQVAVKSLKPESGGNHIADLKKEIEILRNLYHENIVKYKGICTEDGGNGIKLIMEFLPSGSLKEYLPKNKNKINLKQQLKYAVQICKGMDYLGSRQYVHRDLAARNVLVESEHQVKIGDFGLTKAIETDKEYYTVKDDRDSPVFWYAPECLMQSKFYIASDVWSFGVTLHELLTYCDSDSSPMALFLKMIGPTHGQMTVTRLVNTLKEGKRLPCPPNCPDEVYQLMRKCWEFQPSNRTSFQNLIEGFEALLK
Chain of Recombinant human JAK3 catalytic domain (P52333 781-1124): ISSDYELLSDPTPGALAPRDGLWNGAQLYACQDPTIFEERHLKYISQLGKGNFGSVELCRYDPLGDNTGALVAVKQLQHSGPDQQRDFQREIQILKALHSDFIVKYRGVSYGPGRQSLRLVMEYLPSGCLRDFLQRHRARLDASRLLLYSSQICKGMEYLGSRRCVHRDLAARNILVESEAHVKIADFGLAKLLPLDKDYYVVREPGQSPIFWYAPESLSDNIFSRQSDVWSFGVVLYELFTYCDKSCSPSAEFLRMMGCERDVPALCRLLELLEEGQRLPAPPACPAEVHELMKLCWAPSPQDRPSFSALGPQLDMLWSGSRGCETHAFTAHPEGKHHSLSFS
Chain of Recombinant human JAK2 catalytic domain (O60674 808-1132): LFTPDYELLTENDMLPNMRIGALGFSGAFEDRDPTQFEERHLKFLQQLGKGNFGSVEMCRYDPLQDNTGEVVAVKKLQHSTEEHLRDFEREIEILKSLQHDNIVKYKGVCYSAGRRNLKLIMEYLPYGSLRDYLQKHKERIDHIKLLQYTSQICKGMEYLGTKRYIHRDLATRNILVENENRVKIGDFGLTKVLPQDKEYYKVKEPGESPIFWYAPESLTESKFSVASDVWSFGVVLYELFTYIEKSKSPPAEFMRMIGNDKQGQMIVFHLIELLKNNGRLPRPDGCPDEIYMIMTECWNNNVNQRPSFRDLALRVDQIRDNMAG
Chain of Recombinant human TYK2 catalytic domain (P29597 871-1187): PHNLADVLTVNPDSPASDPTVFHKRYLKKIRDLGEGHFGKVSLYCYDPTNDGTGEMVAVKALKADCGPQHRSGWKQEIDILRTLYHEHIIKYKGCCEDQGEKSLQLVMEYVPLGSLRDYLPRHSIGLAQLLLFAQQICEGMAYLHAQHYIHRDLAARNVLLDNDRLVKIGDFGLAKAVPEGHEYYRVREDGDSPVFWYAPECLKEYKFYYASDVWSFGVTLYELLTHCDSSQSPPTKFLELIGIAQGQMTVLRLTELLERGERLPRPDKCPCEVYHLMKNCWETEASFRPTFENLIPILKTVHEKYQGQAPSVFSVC

SMILES | IC50 ([1]; semi-quantitative score) [nM] | IC50 [2] [nM] | IC50 [3] [nM] | IC50 [4] [nM] | EC50 [5] [nM] | EC50 (MMP13 in SW1353 cells) [nM] | Microsomal Stability Human (%) [6] | Microsomal Stability Rat (%) [7] | Papp A→B at 1 h, 10 µM [8] [×10⁻⁶ cm/s] | efflux ratio at 1 h, 10 µM [8] | IC50 [1] [nM]
Cn1ccc(COc2ccc(-c3cccc4nc(NC(=O)C5CC5)nn34)cc2)n1 [Compound 48] | < 100 | 101 to 500 | > 1000 | > 1000 | > 1000 | > 1000 | *** (*** 51-75) | *** (*** 51-75) | 28.8 | 1 | 
CC(=O)Nc1nc2cccc(-c3ccc(OCc4ccccc4)cc3)n2n1 [Compound 163, N-(5-(4-(benzyloxy)phenyl)-[1,2,4]triazolo[1,5-a]pyridin-2-yl)acetamide] |  | < 100 | 101 to 500 | > 1000 | > 1000 | > 1000 | *** (*** 51-75) | ** (** 26-50) |  | 0.85 | < 100
O=C(NCCc1ccccc1)c1ccc(-c2cccc3nc(NC(=O)C4CC4)nn23)c(F)c1 [Compound 111, 4-(2-(cyclopropanecarboxamido)-[1,2,4]triazolo[1,5-a]pyridin-5-yl)-3-fluoro-N-phenethylbenzamide] | < 100 | 101 to 500 | 501 to 1000 | > 1000 | 501 to 1000 | > 1000 | ** (** 26-50) | ** (** 26-50) | 8.23 | 2.9 | 
O=C(Nc1nc2cccc(-c3ccc(C(=O)N4CCC(O)(Cc5ccccc5)CC4)cc3)n2n1)C1CC1 [Compound 156, N-(5-(4-(4-benzyl-4-hydroxypiperidine-1-carbonyl)phenyl)-[1,2,4]triazolo[1,5-a]pyridin-2-yl)cyclopropanecarboxamide] | < 100 | < 100 | 101 to 500 | 101 to 500 | 101 to 500 |  | ** (** 26-50) | ** (** 26-50) | 4.1 | 11.5 | 
Cc1cc(COc2ccc(-c3cccc4nc(NC(=O)C5CC5)nn34)cc2)n(C)n1 [Compound 50] | < 100 | < 100 | 101 to 500 | > 1000 | > 1000 | > 1000 | ** (** 26-50) | * (* 0-25) |  |  | 
O=C(Nc1nc2cccc(-c3ccc(Oc4ccccc4)cc3)n2n1)C1CC1 [Compound 46, N-(5-(4-phenoxyphenyl)-[1,2,4]triazolo[1,5-a]pyridin-2-yl)cyclopropanecarboxamide] | < 100 | 101 to 500 | > 1000 | > 1000 | > 1000 | > 1000 | * (* 0-25) | * (* 0-25) |  |  | 
O=C(N[C@H]1CCN(Cc2ccccc2)C1)c1ccc(-c2cccc3nc(NC(=O)C4CC4)nn23)cc1 [Compound 119, (S)-N-(1-benzylpyrrolidin-3-yl)-4-(2-(cyclopropanecarboxamido)-[1,2,4]triazolo[1,5-a]pyridin-5-yl)benzamide] | < 100 | 101 to 500 | > 1000 | > 1000 | > 1000 | > 1000 | * (* 0-25) | ** (** 26-50) |  |  | 

Second part, led by results:

IC50 ([1]; semi-quantitative score) [nM] | IC50 [2] [nM] | IC50 [3] [nM] | IC50 [4] [nM] | EC50 [5] [nM] | EC50 (MMP13 in SW1353 cells) [nM] | Microsomal Stability Human (%) [6] | Microsomal Stability Rat (%) [7] | Papp A→B at 1 h, 10 µM [8] [×10⁻⁶ cm/s] | efflux ratio at 1 h, 10 µM [8] | SMILES | IC50 [1] [nM]
< 100 | < 100 | > 1000 | 101 to 500 | 501 to 1000 | > 1000 | **** (**** 76-100) | *** (*** 51-75) | 4.3 | 10.1 | O=C(Nc1nc2cccc(-c3ccc(CC(=O)N4CC(F)(F)C4)cc3)n2n1)C1CC1 [Compound 317, Cyclopropanecarboxylic acid (5-{4-[2-(3,3-difluoro-azetidin-1-yl)-2-oxo-ethyl]-phenyl}-[1,2,4]triazolo[1,5-a]pyridin-2-yl)-amide] | 
< 100 | < 100 | < 100 | < 100 | 101 to 500 | 501 to 1000 | *** (*** 51-75) | ** (** 26-50) | 6.55 | 6.55 | NC(=O)c1ccccc1NCc1ccc(-c2cccc3nc(NC(=O)C4CC4)nn23)cc1 [Compound 306, 2-{4-[2-(Cyclopropanecarbonyl-amino)-[1,2,4]triazolo[1,5-a]pyridin-5-yl]-benzylamino}-benzamide] | 
< 100 | < 100 | 501 to 1000 | 501 to 1000 | 101 to 500 | > 1000 | * (* 0-25) | * (* 0-25) | 10.9 | 3.64 | Cc1n[nH]c(C)c1CCOc1ccc(-c2cccc3nc(NC(=O)C4CC4)nn23)cc1 [Compound 51] | 
< 100 | < 100 | > 1000 | 501 to 1000 | > 1000 | > 1000 | *** (*** 51-75) | **** (**** 76-100) | 3.03 | 11.9 | O=C(Nc1nc2cccc(-c3ccc(S(=O)(=O)NC4CC4)cc3)n2n1)C1CC1 [Compound 13, N-(5-(4-(N-cyclopropylsulfamoyl)phenyl)-[1,2,4]triazolo[1,5-a]pyridin-2-yl)cyclopropanecarboxamide] | 
< 100 | 101 to 500 | > 1000 | 501 to 1000 | > 1000 | > 1000 | **** (**** 76-100) | ** (** 26-50) | 11.4 | 2.97 | O=C(Nc1nc2cccc(-c3ccc(C(=O)N4CCCCC4)cc3)n2n1)C1CC1 [Compound 17] | 
< 100 | < 100 | 101 to 500 | > 1000 | 101 to 500 | > 1000 | ** (** 26-50) | * (* 0-25) |  | 0.91 | O=C(Nc1nc2cccc(-c3ccc(OCc4ccccc4)c(F)c3)n2n1)C1CC1 [Compound 15, N-(5-(4-(benzyloxy)-3-fluorophenyl)-[1,2,4]triazolo[1,5-a]pyridin-2-yl)cyclopropanecarboxamide] | 
< 100 | < 100 | 501 to 1000 | 501 to 1000 | 101 to 500 | 1 to 500 | * (* 0-25) | * (* 0-25) | 44.9 | 0.67 | O=C(Nc1nc2cccc(-c3ccc(OC4CCCC4)cc3)n2n1)C1CC1 [Compound 40, N-(5-(4-(cyclopentyloxy)phenyl)-[1,2,4]triazolo[1,5-a]pyridin-2-yl)cyclopropanecarboxamide] | 
< 100 | < 100 | 101 to 500 | < 100 | 101 to 500 | 501 to 1000 | **** (**** 76-100) | **** (**** 76-100) | 4 | 13 | O=C(Nc1nc2cccc(-c3ccc(C(=O)N4CCC(F)(F)C4)cc3)n2n1)C1CC1 [Compound 271, Cyclopropanecarboxylic acid (5-[4-(3,3-difluoro-pyrrolidine-1-carbonyl)-phenyl]-[1,2,4]triazolo[1,5-a]pyridin-2-yl}-amide] | 
